# Measured values as given in patent publication US9248085B2, “Effective depilatory article” (The Procter & Gamble Company, priority 2011, dated 2016).
# Assay: Hair removal from the skin and skin irritation by thioglycolate salts (statement, no method)
# Assay type: in vivo
# Settings: even at low doses
structure (smiles),measurement,value
O=C([O-])CS.[K+] [potassium thioglycolate],hair removal from the skin,effective at removing hair from the skin
